In brackets after ≈: the same amount, converted by molar mass. Where two headings read alike, the source gives them in different places.
Experiments:
[1] = test system: Mycobacterium tuberculosis H37Ra ITM-M006710 (ATCC 9431); experiment: Microplate Alamar Blue Assay (MABA), Mtb H37Ra; assay type: cell-based; conditions: for MIC: Mycobacterium tuberculosis, 120 h, pH 6.6, MABA, Middlebrook 7H9 broth pH 6.6, resazurin after 120 h, read-out: Mtb H37Ra MIC
[2] = test system: Mycobacterium smegmatis DSM 43465 (ATCC 607); experiment: Microplate Alamar Blue Assay (MABA), M. smegmatis; assay type: cell-based; conditions: Mycolicibacterium smegmatis, read-out: M. smegmatis MIC
[3] = test system: M. aurum DSM 43999 (ATCC 23366); experiment: Microplate Alamar Blue Assay (MABA), M. aurum; assay type: cell-based; conditions: Mycolicibacterium aurum, read-out: M. aurum MIC
[4] = test system: Staphylococcus aureus subsp. aureus CCM 4223 (ATCC 29213); experiment: Antibacterial microdilution broth (EUCAST), SA; assay type: cell-based; conditions: Staphylococcus aureus; read after 24 h; read-out: SA MIC
[5] = test system: Staphylococcus aureus subsp. aureus methicillin-resistant (MRSA) CCM 4750 (ATCC 43300); experiment: Antibacterial microdilution broth (EUCAST), MRSA; assay type: cell-based; conditions: Staphylococcus aureus; read after 24 h; read-out: MRSA MIC
[6] = test system: Staphylococcus epidermidis CCM 4418 (ATCC 12228); experiment: Antibacterial microdilution broth (EUCAST), SE; assay type: cell-based; conditions: read after 24 h, read-out: SE MIC
[7] = test system: Enterococcus faecalis CCM 4224 (ATCC 29212); experiment: Antibacterial microdilution broth (EUCAST), EF; assay type: cell-based; conditions: Enterococcus faecalis; read after 24 h; read-out: EF MIC
[8] = test system: Escherichia coli CCM 3954 (ATCC 25922); experiment: Antibacterial microdilution broth (EUCAST), EC; assay type: cell-based; conditions: Escherichia coli; read after 24 h; read-out: EC MIC
[9] = test system: Acinetobacter baumannii DSM 30007 (ATCC 19606); experiment: Antibacterial microdilution broth (EUCAST), ACI; assay type: cell-based; conditions: Acinetobacter baumannii; read after 24 h; read-out: ACI MIC
[10] = test system: Pseudomonas aeruginosa CCM 3955 (ATCC 27853); experiment: Antibacterial microdilution broth (EUCAST), PA; assay type: cell-based; conditions: Pseudomonas aeruginosa; read after 24 h; read-out: PA MIC
[11] = test system: Candida albicans CCM 8320 (ATCC 24433); experiment: Antifungal microdilution broth (EUCAST), CA; assay type: cell-based; conditions: Candida albicans; read after 24 h; read-out: CA MIC
[12] = test system: Candida krusei CCM 8271 (ATCC 6258); experiment: Antifungal microdilution broth (EUCAST), CK; assay type: cell-based; conditions: Pichia kudriavzevii; read after 24 h; read-out: CK MIC
[13] = test system: Candida parapsilosis CCM 8260 (ATCC 22019); experiment: Antifungal microdilution broth (EUCAST), CP; assay type: cell-based; conditions: Lodderomyces parapsilosis; read after 24 h; read-out: CP MIC
[14] = test system: Candida tropicalis CCM 8264 (ATCC 750); experiment: Antifungal microdilution broth (EUCAST), CT; assay type: cell-based; conditions: Candida tropicalis; read after 24 h; read-out: CT MIC
[15] = test system: Aspergillus fumigatus ATCC 204305; experiment: Antifungal microdilution broth (EUCAST), AF; assay type: cell-based; conditions: Aspergillus fumigatus, ATCC204305; read after 24 h; read-out: AF MIC
[16] = test system: Aspergillus flavus CCM 8363; experiment: Antifungal microdilution broth (EUCAST), AFla; assay type: cell-based; conditions: Aspergillus flavus, CCM8363; read after 24 h; read-out: AFla MIC
[17] = test system: Lichtheimia corymbifera CCM 8077; experiment: Antifungal microdilution broth (EUCAST), LC; assay type: cell-based; conditions: Lichtheimia corymbifera, CCM8077; read after 24 h; read-out: LC MIC
[18] = test system: Trichophyton interdigitale CCM 8377 (ATCC 9533); experiment: Antifungal microdilution broth (EUCAST), TI; assay type: cell-based; conditions: Trichophyton interdigitale, 72 h, read-out: TI MIC
[19] = test system: HepG2 human hepatocellular carcinoma cells; experiment: In vitro HepG2 cytotoxicity (CellTiter 96); conditions: for IC50: Homo sapiens, HepG2, 24 h, read-out: HepG2 IC50, 24 h incubation, * limit = highest evaluated concentration (precipitation in medium), ** over the 1000 µM limit
[20] = test system: Klebsiella pneumoniae CCM 4415 (ATCC 10031); experiment: Antibacterial microdilution broth (EUCAST), KP; conditions: read after 24 h

SMILES	MIC [1] [µg/mL]	MIC ([2]; MABA, resazurin after 48 h) [µg/mL]	MIC [4] [µM]	MIC [5] [µM]	MIC [6] [µM]	MIC [7] [µM]	MIC [8] [µM]	MIC [9] [µM]	MIC [10] [µM]	MIC [11] [µM]	MIC [12] [µM]	MIC [13] [µM]	MIC [14] [µM]	MIC [15] [µM]	MIC [16] [µM]	MIC [17] [µM]	MIC [18] [µM]	melting point [°C]	IC50 [19] [µM]	KP MIC [20] [µM]	further results
O=c1[nH]c(-c2ccc(F)cc2)nc2nccnc12 [Compound 41]	≥ 500	≥ 500	> 125	> 125	> 125	> 125	> 125	> 125	> 125	> 125	> 125	> 125	> 125	> 125	> 125	> 125	> 125	277 to 279.5	> 1000	> 125	MIC ([3]; MABA, resazurin after 72 h): ≥ 500 µg/mL
NC(=O)c1nccnc1NC(=O)c1cccc(Br)c1 [Compound 17]	≥ 125	–	> 125	> 125	> 125	> 125	> 125	> 125	> 125	> 125	> 125	> 125	> 125	> 125	> 125	> 125	> 125	255 to 256	> 5	> 125	MIC ([2]; 48 h): ≥ 125 µg/mL; MIC ([3]; 72 h): ≥ 125 µg/mL; solubility in the testing medium (in words) ([19]; HepG2 cell culture medium): low solubility
CN(C)C(=O)c1nccnc1NC(=O)c1ccc(Cl)cc1 [Compound 37]	≥ 500	≥ 500	> 500	> 500	> 500	> 500	> 500	> 500	> 500	> 500	> 500	> 500	> 500	> 500	> 500	> 500	> 500	184.1 to 185.3	> 1000	> 500	antimycobacterial activity (in words) ([1]; activity refers to Mtb H37Ra from the primary screening if not otherwise stated): inactive; MIC ([3]; MABA, resazurin after 72 h): ≥ 500 µg/mL
COc1ccccc1C(=O)Nc1nccnc1C(N)=O [Compound 7]	125 (≈ 459 µM)	62.5 (≈ 230 µM)	> 500	> 500	> 500	> 500	> 500	> 500	> 500	> 500	> 500	> 500	> 500	> 500	> 500	> 500	> 500	205.4 to 206.7	> 500	> 500	MIC ([3]; MABA, resazurin after 72 h): ≥ 500 µg/mL
COc1cccc(C(=O)Nc2nccnc2C(N)=O)c1 [Compound 8]	≥ 250	≥ 250	> 500	> 500	> 500	> 500	> 500	> 500	> 500	> 500	> 500	> 500	> 500	> 500	> 500	> 500	> 500	221 to 223	> 100	> 500	MIC ([3]; MABA, resazurin after 72 h): ≥ 250 µg/mL

From article PMC9687610, “Adenosine-Mimicking Derivatives of 3-Aminopyrazine-2-Carboxamide: Towards Inhibitors of Prolyl-tRNA Synthetase with Antimycobacterial Activity” (Biomolecules, 2022)
